# In patent US12077503B2, “Substituted cyclic amides and their use as herbicides” (FMC CORPORATION, priority 2015, dated 2024):
# What was measured:
# Assay type in all cases: in vivo
# [1] = system: barnyardgrass (Echinochloa crus-galli); experiment: Test A preemergence; details: for Plant response rating, Barnyardgrass: 125 g ai/ha; for Barnyardgrass plant response rating (0 to 100 scale, 0 is no effect, 100 is complete control): 500 g ai/ha, visual injury approx. 10 d
# Description: (§1) Seeds of plant species selected from barnyardgrass (Echinochloa crus-galli), Kochia (Kochia scoparia), ragweed (common ragweed, Ambrosia elatior), ryegrass, Italian (Italian ryegrass, Lolium multiflorum), crabgrass, large (Digitaria sanguinalis), giant foxtail (Setaria faberii), green foxtail (Setaria viridis), morningglory (Ipomoea spp.), pigweed (Amaranthus retroflexus), velvetleaf (Abutilon theophrasti), wheat (Triticum aestivum), and corn (Zea mays) were planted into a blend of loam soil and sand and treated preemergence with a directed soil spray using test chemicals formulated in anon-phytotoxic solvent mixture which included a surfactant.
# (§2) At the same time, plants selected from these crop and weed species and also blackgrass (Alopecurus myosuroides), and Galium (catchweed bedstraw, Galium aparine) were planted in pots containing the same blend of loam soil and sand and treated with postemergence applications of test chemicals formulated in the same manner. Plants ranged in height from 2 to 10 cm and were in the one- to two-leaf stage for the postemergence treatment. Treated plants and untreated controls were maintained in a greenhouse for approximately 10 d, after which time all treated plants were compared to untreated controls and visually evaluated for injury. Plant response ratings, summarized in Table A, are based on a 0 to 100 scale where 0 is no effect and 100 is complete control. A dash (-) response means no test result.
# [2] = system: pigweed (Amaranthus retroflexus); experiment: Test A preemergence; details: for Plant response rating, Pigweed: 125 g ai/ha; for Pigweed plant response rating (0 to 100 scale, 0 is no effect, 100 is complete control): 500 g ai/ha, visual injury approx. 10 d
# Description: as §1, §2
# [3] = system: ragweed (common ragweed, Ambrosia elatior); experiment: Test A preemergence; details: for Plant response rating, Ragweed: 125 g ai/ha; for Ragweed plant response rating (0 to 100 scale, 0 is no effect, 100 is complete control): 500 g ai/ha, visual injury approx. 10 d
# Description: as §1, §2
# Kochia (Kochia scoparia) [4] = experiment: Test A preemergence; details: for Plant response rating, Kochia: 125 g ai/ha; for Kochia plant response rating (0 to 100 scale, 0 is no effect, 100 is complete control): 500 g ai/ha, visual injury approx. 10 d
# Description: as §1, §2
# [5] = system: ryegrass, Italian (Italian ryegrass, Lolium multiflorum); experiment: Test A preemergence; details: for Plant response rating, Ryegrass, Italian: 125 g ai/ha; for Ryegrass, Italian plant response rating (0 to 100 scale, 0 is no effect, 100 is complete control): 500 g ai/ha, visual injury approx. 10 d
# Description: as §1, §2
# [6] = system: giant foxtail (Setaria faberii); experiment: Test A preemergence; details: for Plant response rating, Foxtail, Giant: 125 g ai/ha; for Foxtail, Giant plant response rating (0 to 100 scale, 0 is no effect, 100 is complete control): 500 g ai/ha, visual injury approx. 10 d
# Description: as §1, §2
# [7] = system: barnyardgrass (Echinochloa crus-galli); experiment: Test B flooded paddy test; details: Flood, 0 to 100 scale where 0 is no effect and 100 is complete control, 13 to 15 d
# Method in brief: (§3)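 Visual ratings (0 none to 100 complete control) are relative to untreated plants, taken 13–15 d after treatment in a greenhouse. Test material went straight into floodwater standing 3 cm above the soil, kept constant, on plants at the 2-leaf stage.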
# rice (Oryra sativa) = experiment: Test B flooded paddy test; details: Flood, 0 to 100 scale where 0 is no effect and 100 is complete control, 13 to 15 d
# Method in brief: as §3
# [8] = system: ducksalad (Heteranthera limosa); experiment: Test B flooded paddy test; details: Flood, 0 to 100 scale where 0 is no effect and 100 is complete control, 13 to 15 d
# Method in brief: as §3
# [9] = system: sedge, umbrella (small-flower umbrella sedge, Cyperus difformis); experiment: Test B flooded paddy test; details: Flood, 0 to 100 scale where 0 is no effect and 100 is complete control, 13 to 15 d
# Method in brief: as §3
# [10] = system: barnyardgrass (Echinochloa crus-galli); experiment: Test A postemergence; details: for Barnyardgrass plant response rating: 125 g ai/ha, visual injury rating on 0 to 100 scale (0 no effect, 100 complete control), approx. 10 d; for Plant response rating, Barnyardgrass: 500 g ai/ha
# Description: as §1, §2
# [11] = system: wheat (Triticum aestivum); experiment: Test A postemergence; details: for Wheat plant response rating: 125 g ai/ha, visual injury rating on 0 to 100 scale (0 no effect, 100 complete control), approx. 10 d; for Plant response rating, Wheat: 500 g ai/ha
# Description: as §1, §2
# [12] = system: pigweed (Amaranthus retroflexus); experiment: Test A postemergence; details: for Pigweed plant response rating: 125 g ai/ha, visual injury rating on 0 to 100 scale (0 no effect, 100 complete control), approx. 10 d; for Plant response rating, Pigweed: 500 g ai/ha
# Description: as §1, §2
# [13] = system: ragweed (common ragweed, Ambrosia elatior); experiment: Test A postemergence; details: for Ragweed plant response rating: 125 g ai/ha, visual injury rating on 0 to 100 scale (0 no effect, 100 complete control), approx. 10 d; for Plant response rating, Ragweed: 500 g ai/ha
# Description: as §1, §2
# [14] = system: blackgrass (Alopecurus myosuroides); experiment: Test A postemergence; details: for Blackgrass plant response rating: 125 g ai/ha, visual injury rating on 0 to 100 scale (0 no effect, 100 complete control), approx. 10 d; for Plant response rating, Blackgrass: 500 g ai/ha
# Description: as §1, §2
# Kochia (Kochia scoparia) [15] = experiment: Test A postemergence; details: for Kochia plant response rating: 125 g ai/ha, visual injury rating on 0 to 100 scale (0 no effect, 100 complete control), approx. 10 d; for Plant response rating, Kochia: 500 g ai/ha
# Description: as §1, §2
# [16] = system: ryegrass, Italian (Italian ryegrass, Lolium multiflorum); experiment: Test A postemergence; details: for Ryegrass, Italian plant response rating: 125 g ai/ha, visual injury rating on 0 to 100 scale (0 no effect, 100 complete control), approx. 10 d; for Plant response rating, Ryegrass, Italian: 500 g ai/ha
# Description: as §1, §2
# [17] = system: Galium (catchweed bedstraw, Galium aparine); experiment: Test A postemergence; details: for Galium plant response rating: 125 g ai/ha, visual injury rating on 0 to 100 scale (0 no effect, 100 complete control), approx. 10 d; for Plant response rating, Galium: 500 g ai/ha
# Description: as §1, §2
# corn (Zea mays) = experiment: Test A postemergence; details: for Corn plant response rating: 125 g ai/ha, visual injury rating on 0 to 100 scale (0 no effect, 100 complete control), approx. 10 d; for Plant response rating, Corn: 500 g ai/ha
# Description: as §1, §2
# [18] = system: giant foxtail (Setaria faberii); experiment: Test A postemergence; details: for Foxtail, Giant plant response rating: 125 g ai/ha, visual injury rating on 0 to 100 scale (0 no effect, 100 complete control), approx. 10 d; for Plant response rating, Foxtail, Giant: 500 g ai/ha
# Description: as §1, §2
# [19] = Preemergence, visual injury after approximately 10 d, 0 to 100 scale where 0 is no effect and 100 is complete control
# [20] = Postemergence, 0 to 100 scale where 0 is no effect and 100 is complete control
# [21] = preemergence, 0 to 100 scale (0 no effect, 100 complete control)
# [22] = postemergence, 0 to 100 scale, 0 no effect, 100 complete control
SMILES,"Plant response rating, Barnyardgrass [1, 19]","Barnyardgrass plant response rating (0 to 100 scale, 0 is no effect, 100 is complete control) ([1]; Preemergence)","Plant response rating, Pigweed [2, 19]","Pigweed plant response rating (0 to 100 scale, 0 is no effect, 100 is complete control) ([2]; Preemergence)","Plant response rating, Ragweed [3, 19]","Ragweed plant response rating (0 to 100 scale, 0 is no effect, 100 is complete control) ([3]; Preemergence)","Plant response rating, Kochia (Kochia (Kochia scoparia) [4]; [19])","Kochia plant response rating (0 to 100 scale, 0 is no effect, 100 is complete control) (Kochia (Kochia scoparia) [4]; Preemergence)","Ryegrass, Italian plant response rating (0 to 100 scale, 0 is no effect, 100 is complete control) ([5]; Preemergence)","Foxtail, Giant plant response rating (0 to 100 scale, 0 is no effect, 100 is complete control) ([6]; Preemergence)",Barnyardgrass plant response rating ([10]; postemergence),Wheat plant response rating ([11]; postemergence),Pigweed plant response rating ([12]; postemergence),Ragweed plant response rating ([13]; postemergence),Blackgrass plant response rating ([14]; postemergence),Kochia plant response rating (Kochia (Kochia scoparia) [15]; postemergence),"Ryegrass, Italian plant response rating ([16]; postemergence)",Galium plant response rating ([17]; postemergence),Corn plant response rating (corn (Zea mays); postemergence),"Foxtail, Giant plant response rating ([18]; postemergence)",also measured
O=C(Nc1cccc(F)c1F)C1C(=O)N(CC=CCl)CC1c1cccc(C(F)(F)F)c1 (stereo not drawn) [Compound 485],30,80,0,0,0,0,0,0,0,90,20,0,0,0,0,0,0,0,0,20,"Plant response rating, Ryegrass, Italian [5, 19]: 0; Plant response rating, Foxtail, Giant [6, 19]: 70; Plant response rating, Barnyardgrass ([7]; 250 g ai/ha): 0; Plant response rating, Rice (rice (Oryra sativa); 250 g ai/ha): 0; Plant response rating, Ducksalad ([8]; 250 g ai/ha): 40; Plant response rating, Sedge, Umbrella ([9]; 250 g ai/ha): 0; Plant response rating, Barnyardgrass [10, 20]: 50; Plant response rating, Wheat [11, 20]: 20; Plant response rating, Pigweed [12, 20]: 40; Plant response rating, Ragweed [13, 20]: 0; Plant response rating, Blackgrass [14, 20]: 0; Plant response rating, Kochia (Kochia (Kochia scoparia) [15]; [20]): 30; Plant response rating, Ryegrass, Italian [16, 20]: 0; Plant response rating, Galium [17, 20]: 30; Plant response rating, Corn (corn (Zea mays); [20]): 20; Plant response rating, Foxtail, Giant [18, 20]: 70"
Cc1ccc(C2CNC(=O)C2C(=O)Nc2ccccc2F)c(F)c1 (racemic) [Compound 509],60,90,0,0,0,0,0,0,0,70,60,0,0,0,0,0,0,0,0,0,"Plant response rating, Ryegrass, Italian [5, 19]: 0; Plant response rating, Foxtail, Giant [6, 19]: 40; Plant response rating, Barnyardgrass ([7]; 250 g ai/ha): 0; Plant response rating, Rice (rice (Oryra sativa); 250 g ai/ha): 0; Plant response rating, Ducksalad ([8]; 250 g ai/ha): 50; Plant response rating, Sedge, Umbrella ([9]; 250 g ai/ha): 0; Plant response rating, Barnyardgrass [10, 20]: 90; Plant response rating, Wheat [11, 20]: 0; Plant response rating, Pigweed [12, 20]: 0; Plant response rating, Ragweed [13, 20]: 0; Plant response rating, Blackgrass [14, 20]: 20; Plant response rating, Kochia (Kochia (Kochia scoparia) [15]; [20]): 20; Plant response rating, Ryegrass, Italian [16, 20]: 0; Plant response rating, Galium [17, 20]: 40; Plant response rating, Corn (corn (Zea mays); [20]): 0; Plant response rating, Foxtail, Giant [18, 20]: 40"
Cc1cc(NC(=O)C2C(=O)NCC2c2ccc(F)c(F)c2)ccc1F (stereo not drawn) [Compound 412],–,70,–,0,–,0,–,0,0,70,0,0,0,0,0,0,0,0,0,0,"Plant response rating, Barnyardgrass [1, 21]: 40; Plant response rating, Pigweed [2, 21]: 0; Plant response rating, Ragweed [3, 21]: 0; Plant response rating, Kochia (Kochia (Kochia scoparia) [4]; [21]): 0; Plant response rating, Ryegrass, Italian [5, 21]: 0; Plant response rating, Foxtail, Giant [6, 21]: 60; Plant response rating, Barnyardgrass ([7]; 500 g ai/ha): 0; Plant response rating, Rice (rice (Oryra sativa); 500 g ai/ha): 0; Plant response rating, Ducksalad ([8]; 500 g ai/ha): 30; Plant response rating, Sedge, Umbrella ([9]; 500 g ai/ha): 0; Plant response rating, Barnyardgrass [10, 22]: 0; Plant response rating, Wheat [11, 22]: 0; Plant response rating, Pigweed [12, 22]: 0; Plant response rating, Ragweed [13, 22]: 0; Plant response rating, Blackgrass [14, 22]: 0; Plant response rating, Kochia (Kochia (Kochia scoparia) [15]; [22]): 0; Plant response rating, Ryegrass, Italian [16, 22]: 0; Plant response rating, Galium [17, 22]: 0; Plant response rating, Corn (corn (Zea mays); [22]): 0; Plant response rating, Foxtail, Giant [18, 22]: 0"
O=C1NCC(c2cc(F)cc(Cl)c2)C1C(=O)Nc1ccc(F)cc1F (stereo not drawn) [Compound 493],90,90,0,0,0,30,0,20,20,90,90,0,0,20,20,0,20,30,0,90,"Plant response rating, Ryegrass, Italian [5, 19]: 0; Plant response rating, Foxtail, Giant [6, 19]: 90; Plant response rating, Barnyardgrass ([7]; 250 g ai/ha): 60; Plant response rating, Rice (rice (Oryra sativa); 250 g ai/ha): 25; Plant response rating, Ducksalad ([8]; 250 g ai/ha): 80; Plant response rating, Sedge, Umbrella ([9]; 250 g ai/ha): 0; Plant response rating, Barnyardgrass [10, 20]: 90; Plant response rating, Wheat [11, 20]: 30; Plant response rating, Pigweed [12, 20]: 0; Plant response rating, Ragweed [13, 20]: 20; Plant response rating, Blackgrass [14, 20]: 50; Plant response rating, Kochia (Kochia (Kochia scoparia) [15]; [20]): 20; Plant response rating, Ryegrass, Italian [16, 20]: 50; Plant response rating, Galium [17, 20]: 40; Plant response rating, Corn (corn (Zea mays); [20]): 70; Plant response rating, Foxtail, Giant [18, 20]: 90"
